From US11254661B2, “Quinoline derivatives for treating infections with helminths” (Bayer Animal Health GMBH, priority 2017, dated 2022) come the findings set out here.

For assay [1], the system named is Dirofilaria immitis microfilariae. As to the kind of experiment: In Vitro Assay 2: Dirofilaria immitis microfilariae (DIROIM L1) motility. To be noted: 72 h.
Assay [2] concerns the target C. elegans Slo-1a (Caenorhabditis elegans, UniProt Q95V25).
Method: In Vitro Assay 1: C. elegans Slo-1a—Action at a Recombinant C. elegans Cell Line
Cells were cultured at 37° C. and 5% CO2 in MEMalpha with Gutamax I (Invitrogen, Nr.: 32571), supplemented with 10% (v/v) heat inactivated fetal bovine serum (Invitrogen, Nr.: 10500), G418 (1 mg/ml, Invitrogen, Nr.: 10131). Cells were detached using Accutase (Sigma, Nr.: A6964).
Membrane Potential Measurements
Laboratory compound testing was performed on 384-well microtiter plates (MTPs, Greiner, Nr.: 781092). 8000 cells/well were plated onto 384-well MTPs and cultured for 20 to 24 hours at 37° C. and 5% CO2. After removal of the cell culture medium, the cells were washed once with tyrode (150 mM NaCl, 0.3 mM KCl, 2 mM CaCl2, 1 mM MgCl2, 0.8 mM NaH2PO4, 5 mM Glucose, 28 mM Hepes, pH 7.4) and then loaded with the voltage sensitive dye of the Membrane Potential Assay Kit diluted in tyrode for 1 h at room temperature.
After starting the measurement of fluorescence using a FLIPR Tetra(Molecular Devices, Exc. 510-545 nm, Emm. 565-625 nm), test compounds were added followed by the addition of KCl tyrode (final assay concentration: 70 mM KCl, 2 mM CaCl2, 1 mM MgCl2, 0.8 mM NaH2PO4, 5 mM Glucose, 28 mM Hepes, pH 7.4, including the voltage sensitive dye). The measurement was completed after 7 minutes.
In assay [3] the test system is Dirofilaria immitis third-stage larvae. As to the kind of experiment: In Vitro Assay 3: Dirofilaria immitis (DIROIM L4) larval motility. To be noted: 72 h.

C. elegans Slo-1a, sequence (Q95V25 whole entry): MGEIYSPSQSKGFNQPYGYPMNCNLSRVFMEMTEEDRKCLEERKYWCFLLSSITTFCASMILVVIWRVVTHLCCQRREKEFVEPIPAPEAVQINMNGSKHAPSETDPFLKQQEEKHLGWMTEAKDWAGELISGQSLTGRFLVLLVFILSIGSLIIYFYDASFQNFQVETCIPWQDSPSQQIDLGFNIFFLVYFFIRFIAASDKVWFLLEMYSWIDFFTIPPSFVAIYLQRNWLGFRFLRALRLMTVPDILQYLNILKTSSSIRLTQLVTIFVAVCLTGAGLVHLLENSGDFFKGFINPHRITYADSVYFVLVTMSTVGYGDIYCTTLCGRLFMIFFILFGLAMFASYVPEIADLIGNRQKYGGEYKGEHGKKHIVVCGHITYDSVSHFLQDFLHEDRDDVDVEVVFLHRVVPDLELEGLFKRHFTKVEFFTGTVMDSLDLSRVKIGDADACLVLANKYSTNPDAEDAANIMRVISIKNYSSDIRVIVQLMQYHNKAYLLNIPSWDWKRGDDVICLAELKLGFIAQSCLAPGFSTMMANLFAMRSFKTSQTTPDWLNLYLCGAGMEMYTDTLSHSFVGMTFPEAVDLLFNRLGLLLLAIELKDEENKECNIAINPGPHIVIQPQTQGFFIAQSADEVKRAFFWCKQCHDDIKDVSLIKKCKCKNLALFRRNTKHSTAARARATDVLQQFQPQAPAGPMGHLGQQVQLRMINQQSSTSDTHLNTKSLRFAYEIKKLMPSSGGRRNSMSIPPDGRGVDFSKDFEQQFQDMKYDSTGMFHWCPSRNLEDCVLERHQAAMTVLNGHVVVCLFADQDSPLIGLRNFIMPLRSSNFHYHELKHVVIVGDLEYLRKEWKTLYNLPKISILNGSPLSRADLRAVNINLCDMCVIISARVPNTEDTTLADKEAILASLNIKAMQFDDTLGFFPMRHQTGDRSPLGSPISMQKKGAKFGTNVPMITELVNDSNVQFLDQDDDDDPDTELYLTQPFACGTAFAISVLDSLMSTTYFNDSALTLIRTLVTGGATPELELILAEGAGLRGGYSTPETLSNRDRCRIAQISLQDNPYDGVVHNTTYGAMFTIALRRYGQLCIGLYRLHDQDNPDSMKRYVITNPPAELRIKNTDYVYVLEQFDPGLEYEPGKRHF

Usually EC50 stands for the concentration that produces a half-maximal response. Lower therefore signals greater potency. Turning to `CC(C)CC(C)c1cccc2c(N3CCOCC3)c(C(=O)N[C@H]3CCOc4ccccc43)cnc12` (stereo partly drawn) [Example 22, N-[(4S)-3,4-dihydro-2H-chromen-4-yl]-8-(4-methylpentan-2-yl)-4-(morpholin-4-yl)quinoline-3-carboxamide], the values for the EC50 in assay [1], in assay [2] and in assay [3] were below 0.1 µg/mL, 3.16 to 31.6 nM and below 0.1 µg/mL, respectively.

Regarding `CN(C)c1c(C(=O)N[C@H]2CCOc3ccccc32)cnc2c(C3=CCC(C)(C)CC3)cccc12` [Example 18, (S)—N-(Chroman-4-yl)-4-(dimethylamino)-8-(4,4-dimethylcyclohex-1-en-1-yl)quinoline-3-carboxamide], the EC50 in assay [1] was below 10 µg/mL; in assay [2] it was 31.6 to 316 nM; in assay [3] it was below 1 µg/mL.

For the compound `O=C(N[C@H]1CCc2ccccc21)c1cnc2c(N3CCCCC3)c(F)ccc2c1N1CCOCC1` [Example 43, N-[(1S)-2,3-dihydro-1H-inden-1-yl]-7-fluoro-4-(morpholin-4-yl)-8-(piperidin-1-yl)quinoline-3-carboxamide], the figures for the EC50 in assay [1], in assay [2] and in assay [3] were below 0.1 µg/mL, 3.16 to 31.6 nM and below 0.1 µg/mL, respectively.

With `C[C@@H]1C[C@H](C)CN(c2cccc3c(N(C)C)c(C(=O)N[C@H]4CCOc5ccccc54)cnc23)C1` [Example 34, N-[(4S)-3,4-dihydro-2H-chromen-4-yl]-4-(dimethylamino)-8-[(3R,5S)-3,5-dimethylpiperidin-1-yl]quinoline-3-carboxamide], the EC50 is below 1 µg/mL in assay [1], below 3.16 nM in assay [2] and below 0.1 µg/mL in assay [3].

On to `CC1CC(C)CN(c2c(F)ccc3c(N4CCOCC4)c(C(=O)N[C@H]4CCc5ccccc54)cnc23)C1` (stereo partly drawn) [Example 49, N-[(1S)-2,3-dihydro-1H-inden-1-yl]-8-(3,5-dimethylpiperidin-1-yl)-7-fluoro-4-(morpholin-4-yl)quinoline-3-carboxamide], for which the EC50 is below 0.1 µg/mL in assay [1], below 3.16 nM in assay [2] and below 0.1 µg/mL in assay [3].

For `CC(C)c1c(C(=O)N[C@H]2CCOc3ccccc32)cnc2c(N3C[C@H](C)C[C@H](C)C3)c(F)ccc12` [Example 38, N-[(4S)-3,4-dihydro-2H-chromen-4-yl]-8-[(3R,5S)-3,5-dimethylpiperidin-1-yl]-7-fluoro-4-(propan-2-yl)quinoline-3-carboxamide], the EC50 in assay [1] was below 0.1 µg/mL; in assay [2] it was below 3.16 nM; in assay [3], below 0.1 µg/mL.

Turning to `CN(C)c1c(C(=O)N[C@H]2CCOc3ccccc32)cnc2c(C3CCCCCC3)cccc12` [Example 15, (S)—N-(Chroman-4-yl)-8-cycloheptyl-4-(dimethylamino)quinoline-3-carboxamide], the 50% effective concentration (EC50) in assay [1] was below 0.1 µg/mL; in assay [2], 3.16 to 31.6 nM; in assay [3] it was below 0.1 µg/mL.

Consider `O=C(N[C@H]1CCc2ccccc21)c1cnc2c(N3CCC(F)(F)CC3)c(F)ccc2c1N1CCOCC1` [Example 40, 8-(4,4-difluoropiperidin-1-yl)-N-[(1S)-2,3-dihydro-1H-inden-1-yl]-7-fluoro-4-(morpholin-4-yl)quinoline-3-carboxamide], for which the EC50 was below 0.1 µg/mL in assay [1], 3.16 to 31.6 nM in assay [2] and below 0.1 µg/mL in assay [3].

`CN(C)c1c(C(=O)N[C@H]2CCc3ccccc32)cnc2c(N3CCCC3)c(F)ccc12` [Example 42, N-[(1S)-2,3-dihydro-1H-inden-1-yl]-4-(dimethylamino)-7-fluoro-8-(pyrrolidin-1-yl)quinoline-3-carboxamide]: the concentration giving a half-maximal response (EC50) in assay [1] is below 10 µg/mL; in assay [2] it was 31.6 to 316 nM.

Regarding `C[C@@H]1CN(c2cccc3c(N4CCOCC4)c(C(=O)N[C@H]4CCOc5ccccc54)cnc23)C[C@@H](C)O1` [Example 32, N-[(4S)-3,4-dihydro-2H-chromen-4-yl]-8-[(2R,6R)-2,6-dimethylmorpholin-4-yl]-4-(morpholin-4-yl)quinoline-3-carboxamide], the EC50 was below 1 µg/mL in assay [1] and 316 to 5010 nM in assay [2].

Turning to `CN(C)c1c(C(=O)N[C@H]2CCc3ccccc32)cnc2c(N3CCCCC3)c(F)ccc12` [Example 44, N-[(1S)-2,3-dihydro-1H-inden-1-yl]-4-(dimethylamino)-7-fluoro-8-(piperidin-1-yl)quinoline-3-carboxamide], the EC50 in assay [1] was below 1 µg/mL; in assay [2], 3.16 to 31.6 nM.

Regarding `C[C@@H]1C[C@H](C)CN(c2cccc3c(N4CCOCC4)c(C(=O)N[C@H]4CCOc5ccccc54)cnc23)C1` [Example 33, N-[(4S)-3,4-dihydro-2H-chromen-4-yl]-8-[(3R,5S)-3,5-dimethylpiperidin-1-yl]-4-(morpholin-4-yl)quinoline-3-carboxamide], the results for the EC50 in assay [1], in assay [2] and in assay [3] were below 0.1 µg/mL, below 3.16 nM and below 0.1 µg/mL, respectively.

`CN(C)c1c(C(=O)N[C@H]2CCOc3ccccc32)cnc2c(C3=CCC(C(F)(F)F)CC3)cccc12` (stereo partly drawn) [Example 16, N—((S)-Chroman-4-yl)-4-(dimethylamino)-8-(4-(trifluoromethyl)cyclohex-1-en-1-yl)quinoline-3-carboxamide]: the EC50 in assay [1] is below 1 µg/mL; in assay [2], 3.16 to 31.6 nM.

Consider `CN(C)c1c(C(=O)N[C@H]2CCc3ccccc32)cnc2c(N3CCS(=O)(=O)CC3)c(F)ccc12` [Example 46, N-[(1S)-2,3-dihydro-1H-inden-1-yl]-4-(dimethylamino)-8-(1,1-dioxidothiomorpholin-4-yl)-7-fluoroquinoline-3-carboxamide], for which the figures for the EC50 in assay [1] and in assay [2] were below 10 µg/mL and 316 to 5010 nM, respectively.

Turning to `CC(C)CCc1cccc2c(N(C)C)c(C(=O)N[C@H]3CCOc4ccccc43)cnc12` [Example 3, (S)—N-(Chroman-4-yl)-4-(dimethylamino)-8-isopentylquinoline-3-carboxamide], the EC50 was below 1 µg/mL in assay [1] and 3.16 to 31.6 nM in assay [2].

In the case of `CN(C)c1c(C(=O)N[C@H]2CCOc3ccccc32)cnc2c(N3CCCCC3)cccc12` [Example 30, N-[(4S)-3,4-dihydro-2H-chromen-4-yl]-4-(dimethylamino)-8-(piperidin-1-yl)quinoline-3-carboxamide], the EC50 in assay [1] was below 1 µg/mL; in assay [2], 31.6 to 316 nM.

Consider `CC(C)c1c(C(=O)N[C@H]2CCOc3ccccc32)cnc2c(N3CCCCC3)c(F)ccc12` [Example 37, N-[(4S)-3,4-dihydro-2H-chromen-4-yl]-7-fluoro-8-(piperidin-1-yl)-4-(propan-2-yl)quinoline-3-carboxamide], for which the results for the EC50 in assay [1], in assay [2] and in assay [3] were below 0.1 µg/mL, 3.16 to 31.6 nM and below 0.1 µg/mL, respectively.

`CN(C)c1c(C(=O)N[C@H]2CCOc3ccccc32)cnc2c(C3=CCOCC3)cccc12` [Example 13, (S)—N-(Chroman-4-yl)-8-(3,6-dihydro-2H-pyran-4-yl)-4-(dimethylamino)quinoline-3-carboxamide]: the EC50 in assay [1] was below 1 µg/mL; in assay [2], 31.6 to 316 nM.
